These results are taken from patent US7507753B2, “Biaryl compound and use thereof” (Takeda Chemical Industries Ltd., priority 2001, dated 2009).

Where a name gives a salt, the structure may show the parent alone.

T1 sequence (P32245 whole entry): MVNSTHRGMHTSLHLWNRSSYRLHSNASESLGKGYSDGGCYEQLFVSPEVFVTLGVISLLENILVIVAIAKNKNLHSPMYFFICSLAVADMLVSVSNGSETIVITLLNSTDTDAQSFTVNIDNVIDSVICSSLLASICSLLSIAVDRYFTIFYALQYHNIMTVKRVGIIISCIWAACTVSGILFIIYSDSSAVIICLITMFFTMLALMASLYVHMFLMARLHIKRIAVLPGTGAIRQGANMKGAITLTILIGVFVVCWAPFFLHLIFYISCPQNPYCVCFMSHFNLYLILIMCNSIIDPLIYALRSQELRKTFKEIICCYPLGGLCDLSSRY

This assay addresses T1, Human MC4R (Homo sapiens, UniProt P32245).
T1 construct: expressed in transfected cells; plasmid pMC4R in vector pMSR alpha neo
The assay is described as follows: [125I]-[Nle4,D-Phe7]-α-MSH binding inhibition in CHO/MC4R cells. The note with it: test compound 10 μM, 100 pM [125I]-[Nle4,D-Phe7]-α-MSH, room temperature, 60 minutes. The procedure:
(1) Cloning of Human MC4R
Cloning of MC4R gene was conducted from human brain cDNA by PCR method. Using 0.5 ng of brain cDNA (Clontech, Quick-lone cDNA) as a genetic template, primer sets prepared by referring to MC4R gene base sequence described in Birkenbach M. et al. (J. Virol, 67(4),2209-2220(1993)), i.e., primer-1: 5′-[…]-3′ [Sequence No.:1] and primer-2: 5′-[…]-3′ [Sequence No.:2] were added in amounts of 50 pmol, respectively, and, the PCR reaction was carried out using TaKaRa LA Taq(Takara Shuzo)in Gene Amp PCR System 9600 (Applied Biosystems)(Reaction conditions: 35 cycles of 95° C. for 1 minute, 62° C. for 1 minute, and 72° C. for 3 minutes).
(2) Preparation of Expression Plasmid for Human MC4R
After the PCR fragments obtained above were digested by restriction enzymes Eco RI (Takara Shuzo) and Sal I (Takara Shuzo), DNA fragments were collected by agarose gel electrophoresis. The DNA fragments and an expression plasmid for animal cells pMSR a neo (Japanese Unexamined Patent Application Publication No. 2000-281685, WO 00/44756), which was previously digested by Eco RI and Sal I, were mixed and ligated using a DNA Ligation Kit Ver. 2 (Takara Shuzo). Transformation of E. coli JM109 competent cells gave plasmid pMC4R.
(3) Introduction of the Expression Plasmid for Human MC4R into CHO-K1 Cells and Expression thereof
CHO-KI cells grown in 150 cm^2 of a cell culture flask (Corning Costar) using Ham F12 medium (GIBCO BRL) containing 10% fetal bovine serum (GIBCO BRL) were collected by using 0.5 g/L trypsin-0.2 g/L EDTA (GIBCO BRL). The cells were washed with PBS (GIBCO BRL), centrifuged (1000 rpm, 5 minutes), and were suspended in PBS. Then, the DNA was introduced into the cells using Gene Pulser (BioRad) according to the following conditions. Namely, 1×10^7 cells and 15 μg of human MC4R expression plasmid pMC4R were placed in a 0.4-cm gap cuvette, and the mixture was electropolated under 0.25 kV of electric voltage, and 960 μF of capacitance. Cells were then transferred to Ham F12 medium containing 10% fetal bovine serum. After incubation for 24 hours, cells were collected, centrifuged, and suspended in Ham F12 medium containing 10% fetal bovine serum and Geneticin (GIBCO BRL) at a concentration of 500 μg/ml. Cells were diluted to a concentration of 10^4 cells/ml, and inoculated in 96-well plate (Corning Costar) to obtain Geneticin-resistant strains.
The Geneticin-resistant strains were grown in 96-well plates (OPAQUE PLATE 3917, Costar), and MC4R-expressing cells were selected from the resistant strains. Namely, in an assay buffer (20 mM HEPES (Dojindo Laboratories, Inc.), 0.5% BSA, 0.05% NaN3) containing 200 pM [^125I]-[Nle4,D-Phe7]-α-Melanocyte Stimulating Hormone (Daiichi Pure Chemicals Co., Ltd.), the cells were subjected to binding reaction at room temperature for 60 minutes. After the assay buffer was removed by inspiration, the cells were washed with ice-cooled PBS, and then stirred after adding 100 μl/well of MicroScint-20 (Packard Industry Company, Inc.) to each well. Subsequently, the cells were counted for radioactivity using a Top Count (Packard) to select CHO/MC4R strains, the cells to which [^125I]-[Nle4,D-Phe7]-α-Melanocyte Stimulating Hormone bound specifically. […]
The CHO/MC4R strains were inoculated in 96 well microplate at a concentration of 1×10^4 cells/well, and grown for 72 hours. […] Then, 100 μl MicroScint 20 (Packerd) was added to each well, and the radioactivity of each well was measured by Top Count (Packard). […]
As to `CC(c1cccc(-c2ccccc2C(=O)NCCN)c1)N(C(=O)Cc1ccc2ccccc2c1)C1CCN(Cc2ccccc2)CC1` (centres unmarked) [Example 1, N-(2-aminoethyl)-3′-[1-{N-(1-benzylpiperidin-4-yl)-N-(2-naphthylacetyl)amino}ethyl][1,1′-biphenyl)-2-carboxamide dihydrochloride], the “Binding Inhibitory Ratio” value amounted to 96%. The result for `CC(c1cccc(-c2ccccc2C(=O)NCCN)c1)N(C(=O)Cc1ccc(Br)cc1)C1CCN(Cc2ccccc2)CC1` (centres unmarked) [Example 2, N-(2-aminoethyl) -3′-[1-{N-(1-benzylpiperidin-4-yl)-N-(4-bromophenylacetyl)amino}ethyl][1,1′-biphenyl]-2-carboxamide dihydrochloride] reads 97%; that for `CC(c1cccc(-c2ccccc2C(=O)NCCN)c1)N(C(=O)Cc1ccc(Cl)cc1)C1CCN(Cc2ccccc2)CC1` (centres unmarked) [Example 3, N-(2-aminoethyl)-3′-[1-{N-(1-benzylpiperidin-4-yl)-N-(4-chlorophenylacetyl)amino}ethyl][1,1′-biphenyl]-2-carboxamide dihydrochloride], 97%; that for `CC(c1cccc(-c2ccccc2C(=O)NCCN)c1)N(C(=O)Cc1cccc(Cl)c1)C1CCN(Cc2ccccc2)CC1` (centres unmarked) [Example 4, N-(2-aminoethyl)-3′-[1-(N-(1-benzylpiperidin-4-yl)-N-(3-chlorophenylacetyl)amino}ethyl][1,1′-biphenyl]-2-carboxamide dihydrochloride], 92%. As to `CC(c1cccc(-c2ccccc2C(=O)NCCN)c1)N(C(=O)Cc1ccc(Cl)c(Cl)c1)C1CCN(Cc2ccccc2)CC1` (centres unmarked) [Example 9, N-(2-aminoethyl)-3′-[1-{N-(1-benzylpiperidin-4-yl)-N-(3,4-dichlorophenylacetyl)amino}ethyl][1,1′-biphenyl]-2-carboxamide dihydrochloride], the “Binding Inhibitory Ratio” value was determined as 100%.
